Test results as given in patent US11477982B2, “2-amino-5-oxyalkyl-pyrimidine derivatives and their use for controlling undesired plant growth” (Bayer CropScience Aktiengesellschaft, priority 2017, dated 2022).

Columns and labels:
Format in all cases: in vivo
[1] = test system: AVEFA: Avena fatua; assay: Pre-emergence herbicidal effect; settings: dosage 320 g/ha
In short: (§1)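 Herbicide, as WP or EC in aqueous spray with 0.5% additive, applied at 600 l/ha to soil surface covering freshly sown seeds. Pots held in greenhouse about 3 weeks, then activity scored visually versus untreated controls as percent (0% = like control, 100% = plants dead).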

[2] = test system: MATIN: Matricaria inodora; assay: Pre-emergence herbicidal effect; settings: for Herbicidal action against MATIN: pre-emergence, dosage 320 g/ha
In short: as §1

[3] = test system: LOLRI: Lolium rigidum; assay: Pre-emergence herbicidal effect; settings: for Herbicidal action against LOLRI: dosage 320 g/ha
In short: as §1

[4] = test system: VERPE: Veronica persica; assay: Pre-emergence herbicidal effect; settings: dosage 320 g/ha
In short: as §1

[5] = test system: ALOMY: Alopecurus myosuroides; assay: Pre-emergence herbicidal effect; settings: for Herbicidal action against ALOMY: dosage 320 g/ha
In short: as §1

[6] = test system: ECHCG: Echinochloa crus-galli; assay: Pre-emergence herbicidal effect; settings: for Herbicidal action against ECHCG: dosage 320 g/ha
In short: as §1

[7] = test system: POLCO: Polygonum convolvulus; assay: Pre-emergence herbicidal effect; settings: for Herbicidal action against POLCO: dosage 320 g/ha
In short: as §1

[8] = test system: AMARE: Amaranthus retroflexus; assay: Pre-emergence herbicidal effect; settings: for Herbicidal action against AMARE: pre-emergence, dosage 320 g/ha
In short: as §1

[9] = test system: HORMU: Hordeum murinum; assay: Pre-emergence herbicidal effect; settings: for Herbicidal action against HORMU: pre-emergence, dosage 320 g/ha
In short: as §1

[10] = test system: SETVI: Setaria viridis; assay: Pre-emergence herbicidal effect; settings: for Herbicidal action against SETVI: dosage 320 g/ha
In short: as §1

[11] = test system: VIOTR: Viola tricolor; assay: Pre-emergence herbicidal effect; settings: dosage 320 g/ha
In short: as §1

[12] = test system: STEME: Stellaria media; assay: Pre-emergence herbicidal effect; settings: for Herbicidal action against STEME: pre-emergence, dosage 320 g/ha
In short: as §1

[13] = test system: PHBPU: Ipomoea purpurea; assay: Pre-emergence herbicidal effect; settings: for Herbicidal action against PHBPU: dosage 320 g/ha
In short: as §1

[14] = test system: ABUTH: Abutilon theophrasti; assay: Pre-emergence herbicidal effect; settings: for Herbicidal action against ABUTH: dosage 320 g/ha
In short: as §1

[15] = test system: VERPE: Veronica persica; assay: Post-emergence herbicidal effect; settings: dosage 320 g/ha
Procedure: (§2) 2. Post-Emergence Herbicidal Effect and Crop Plant Compatibility
(§3) Seeds of monocotyledonous and dicotyledonous weeds and crop plants are placed in sandy loam in plastic or wood-fiber pots, covered with soil and cultivated in a greenhouse under controlled growth conditions, 2 to 3 weeks after sowing, the test plants are treated at the one-leaf stage. The compounds of the invention, formulated in the form of wettable powders (WP) or as emulsion concentrates (EC), are then sprayed onto the green parts of the plants as aqueous suspension or emulsion with addition of 0.5% additive at a water application rate of 600 l/ha (converted). After the test plants had been kept in the greenhouse under optimum growth conditions for about 3 weeks, the activity of the preparations is rated visually in comparison to untreated controls. For example, 100% activity=the plants have died, 0% activity=like control plants.

[16] = test system: ECHCG: Echinochloa crus-galli; assay: Post-emergence herbicidal effect; settings: dosage 320 g/ha
Procedure: as §2, §3

[17] = test system: AMARE: Amaranthus retroflexus; assay: Post-emergence herbicidal effect; settings: dosage 320 g/ha
Procedure: as §2, §3

[18] = test system: SETVI: Setaria viridis; assay: Post-emergence herbicidal effect; settings: dosage 320 g/ha
Procedure: as §2, §3

[19] = test system: VIOTR: Viola tricolor; assay: Post-emergence herbicidal effect; settings: dosage 320 g/ha
Procedure: as §2, §3

[20] = test system: STEME: Stellaria media; assay: Post-emergence herbicidal effect; settings: dosage 320 g/ha
Procedure: as §2, §3

[21] = test system: ABUTH: Abutilon theophrasti; assay: Post-emergence herbicidal effect; settings: dosage 320 g/ha
Procedure: as §2, §3

[22] = Table 4b, pre-emergence as titled, dosage 80 g of a.i./ha
[23] = Table 4a, dosage 20 g of a.i./ha
[24] = Table 4a, pre-emergence, dosage 20 g of a.i./ha

| Structure (SMILES) | Herbicidal action against AVEFA [1] | Herbicidal action against MATIN [2] | Herbicidal action against LOLRI [3] | Herbicidal action against VERPE [4] | Herbicidal action against ALOMY ([5]; pre-emergence) | Herbicidal action against ECHCG ([6]; pre-emergence) | Herbicidal action against POLCO [7] | Herbicidal action against AMARE [8] | Herbicidal action against HORMU [9] | Herbicidal action against SETVI ([10]; pre-emergence) | Herbicidal action against VIOTR [11] | Herbicidal action against STEME [12] | Herbicidal action against PHBPU [13] | Herbicidal action against ABUTH [14] | Herbicidal action against VERPE [15] | Herbicidal action against ECHCG [16] | Herbicidal action against AMARE [17] | Herbicidal action against SETVI [18] | Herbicidal action against VIOTR [19] | Herbicidal action against STEME [20] | further results |
| --- | --- | --- | --- | --- | --- | --- | --- | --- | --- | --- | --- | --- | --- | --- | --- | --- | --- | --- | --- | --- | --- |
| COC(C)(C)c1cnc(N[C@H]2c3cc(C)ccc3C[C@@H]2C)nc1 [Example 1.24] | 100% | 100% | 100% | 100% | 100% | 100% | 100% | 100% | 100% | 100% | 100% | 100% | 90% | 100% | 90% | 100% | 90% | 90% | 90% | 100% | Herbicidal action against ABUTH [21]: 90% |
| C=CC(C)(O)c1cnc(N[C@H]2c3cc(C)ccc3C[C@@H]2C)nc1 (stereo partly drawn) [Example 1.15, 2-(2-{[(1R,2S)-2,6-Dimethyl-2,3-dihydro-1H-inden-1-yl]amino}pyrimidin-5-yl)but-3-en-2-ol] | 100% | 100% | 100% | 100% | 100% | 100% | 100% | 100% | 100% | 100% | 100% | 100% | 100% | 100% | 90% | 100% | 90% | 80% | 80% | 100% | Herbicidal action against ABUTH [21]: 90% |
| Cc1ccc2c(c1)[C@H](Nc1ncc(C(C)O)c(C)n1)CCC2 (some centres unmarked) [Example 1.48] | 90% | 100% | 100% | 100% | 100% | 100% | 100% | 100% | 100% | 100% | 100% | 100% | 90% | 100% | 90% | 100% | 90% | 90% | 80% | 90% | Herbicidal efficacy against MATIN [2, 22]: 70; Herbicidal efficacy against LOLRI [3, 23]: 90; Herbicidal efficacy against ALOMY [5, 24]: 70; Herbicidal efficacy against ALOMY [5, 22]: 50; Herbicidal efficacy against ECHCG [6, 24]: 80; Herbicidal efficacy against ECHCG [6, 22]: 90; Herbicidal efficacy against POLCO [7, 23]: 100; Herbicidal efficacy against AMARE [8, 22]: 80; Herbicidal efficacy against HORMU [9, 22]: 20; Herbicidal efficacy against SETVI [10, 24]: 100; Herbicidal efficacy against SETVI [10, 22]: 70; Herbicidal efficacy against STEME [12, 22]: 80; Herbicidal efficacy against PHBPU [13, 23]: 70; Herbicidal efficacy against ABUTH [14, 23]: 90; Herbicidal action against ABUTH [21]: 80% |
| C#CC(C)(O)c1cnc(N[C@H]2c3cc(C)ccc3C[C@@H]2C)nc1 (some centres unmarked) [Example 1.18] | 100% | 100% | 100% | 100% | 100% | 100% | 100% | 100% | 100% | 100% | 100% | 100% | 100% | 100% | 100% | 100% | 90% | 90% | 90% | 100% | Herbicidal action against ABUTH [21]: 90% |
| CCc1ccc2c(c1)[C@H](Nc1ncc(C(C)(C)O)cn1)CC2 [Example 1.31] | 100% | 100% | 100% | 100% | 100% | 100% | 100% | 100% | 100% | 100% | 100% | 100% | 100% | 100% | 90% | 100% | 100% | 90% | 90% | 100% | Herbicidal action against ABUTH [21]: 90% |
| Cc1ccc2c(c1)[C@H](Nc1ncc(C(C)(C)O)c(C)n1)CC2 [Example 1.12] | 100% | 100% | 100% | 100% | 100% | 100% | 100% | 100% | 100% | 100% | 100% | 100% | 100% | 100% | 90% | 100% | 90% | 100% | 80% | 100% | Herbicidal action against ABUTH [21]: 90% |
